45 molecules from US7960393B2, “Pyrimidine derivatives useful for the treatment of diseases mediated by CRTH2” (Actimis Pharmaceuticals, Inc., priority 2002, dated 2011) can be followed below.

One series concerns the target T1, human CRTH2 (Homo sapiens, UniProt Q9Y5Y4).
T1 construct: expressed in transfected cells; host or cells: L1.2 cells, pEAK expression vector, puromycin-selected
T1 sequence (Q9Y5Y4 1-395): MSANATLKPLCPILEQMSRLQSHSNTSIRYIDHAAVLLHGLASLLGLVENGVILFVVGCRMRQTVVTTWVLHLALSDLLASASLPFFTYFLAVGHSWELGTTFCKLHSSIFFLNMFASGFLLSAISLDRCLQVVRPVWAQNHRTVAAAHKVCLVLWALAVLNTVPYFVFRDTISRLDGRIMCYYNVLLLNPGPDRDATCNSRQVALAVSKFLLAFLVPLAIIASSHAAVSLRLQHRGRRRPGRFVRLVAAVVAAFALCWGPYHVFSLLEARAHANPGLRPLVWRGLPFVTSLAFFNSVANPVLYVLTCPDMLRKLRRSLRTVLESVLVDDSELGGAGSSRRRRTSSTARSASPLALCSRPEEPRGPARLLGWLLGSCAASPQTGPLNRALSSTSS
As to the kind of experiment: Measurement of Ca2+ mobilization in the human CRTH2-transfected L1.2 cell line (Assay 1). The series is classed as cell-based. The settings on record: PGD2-induced Ca2+ mobilization in CRTH2-transfected L1.2 cells; compounds as yielded by solid phase synthesis, purity about 40 to 90%; read-out: Activity class. In outline: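 Human CRTH2 was stably expressed in L1.2 cells (puromycin-selected) loaded with Fluo-3AM (1 μM final) for 60 min at room temperature. Buffer was 20 mM HEPES pH 7.6, 0.1% BSA, 1 mM probenecid in Hanks'. Cells (2×10^5/well) got compound for 5 min at RT, with fluorescence at 480 nm. IC50 bins: A ≤10 nM, B ≤100 nM, C ≤500 nM, D above; samples were solid-phase products of about 40–90% purity.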

Regarding `CN(C)c1nc(Cc2ccc(NC(=O)/C=C/c3ccccc3)cc2)ncc1CC(=O)O` [Example 2-10], the melting point is 135 to 140 °C. Besides, the IC50 on human CRTH2 is below 0.01 µM.
For the molecule `CN(C)c1nc(Cc2ccc(NC(=O)/C=C/c3ccc(Cl)cc3)cc2)ncc1CC(=O)O` [Example 2-11], the melting point was in the range of 136 to 140 °C. Moreover, on human CRTH2, the IC50 was below 0.01 µM.
In the same order, the values of `COc1ccc(C(=O)Nc2ccc(Cc3ncc(CC(=O)O)c(N(C)C)n3)cc2)cc1OC` [Example 2-12] are 106 to 110 °C and 0.1 to 0.5 µM.
Molecule `CN(C)c1nc(Cc2ccc(NC(=O)c3ccc(C(F)(F)F)cc3)cc2)ncc1CC(=O)O` [Example 2-13] registered a melting point of 149 to 153 °C. Also, the IC50 on human CRTH2 was below 0.01 µM.
For `CN(C)c1nc(Cc2ccc(NC(=O)c3cccc(Cl)c3)cc2)ncc1CC(=O)O` [Example 2-15], in that order: 111 to 113 °C and 0.01 to 0.1 µM.
Consider `CC(c1ccc(NC(=O)c2ccc(Cl)c(Cl)c2)cc1)c1ncc(CC(=O)O)c(N(C)C)n1` (stereo not drawn) [Example 2-21], for which the melting point is 137 to 140 °C. Further, the IC50 at human CRTH2 was below 0.01 µM.
Turning to `CC(c1ccc(NC(=O)c2ccc(C(F)(F)F)cc2)cc1)c1ncc(CC(=O)O)c(N(C)C)n1` (stereo not drawn) [Example 2-22], the melting point was 151 to 154 °C. Also, the IC50 on human CRTH2 is below 0.01 µM.
For `CC(c1ccc(NC(=O)/C=C/c2ccccc2)cc1)c1ncc(CC(=O)O)c(N(C)C)n1` (stereo not drawn) [Example 2-23], in that order: 150 to 153 °C and below 0.01 µM.
`CC(c1ccc(NC(=O)c2ccc3ccccc3n2)cc1)c1ncc(CC(=O)O)c(N(C)C)n1` (stereo not drawn) [Example 2-24] yielded a melting point of 120 to 123 °C. Besides, on human CRTH2, the IC50 is 0.01 to 0.1 µM.
In turn, `CC(c1ccc(NC(=O)c2ccc(Cl)cc2)cc1)c1ncc(CC(=O)O)c(N(C)C)n1` (stereo not drawn) [Example 2-25] gave a melting point of 131 to 134 °C. The IC50 at human CRTH2 is below 0.01 µM.
For the molecule `CC(c1ccc(NC(=O)c2ccc(F)cc2)cc1)c1ncc(CC(=O)O)c(N(C)C)n1` (stereo not drawn) [Example 2-26], the melting point is 114 to 117 °C. In addition, at human CRTH2, the IC50 is below 0.01 µM.
On to `O=C(O)Cc1cnc(Cc2ccc(NC(=O)c3ccc4ccccc4n3)cc2)nc1N1CCCC1` [Example 2-27], for which the melting point was 221 to 224 °C (dec.). Also, at human CRTH2, the IC50 is below 0.01 µM.
For `O=C(O)Cc1cnc(Cc2ccc(NC(=O)c3ccc(Cl)cc3)cc2)nc1N1CCCC1` [Example 2-28], in that order: 151 to 153 °C and below 0.01 µM.
For `O=C(O)Cc1cnc(Cc2ccc(NC(=O)c3ccc(F)cc3)cc2)nc1N1CCCC1` [Example 2-29], in that order: 143 to 145 °C and below 0.01 µM.
`O=C(O)Cc1cnc(Cc2ccc(NC(=O)c3ccc(C(F)(F)F)cc3)cc2)nc1N1CCCC1` [Example 2-30]: the melting point is 156 to 158 °C (dec.). Further, the IC50 at human CRTH2 is below 0.01 µM.
`O=C(O)Cc1cnc(Cc2ccc(NC(=O)c3ccc4ccccc4c3)cc2)nc1N1CCCC1` [Example 2-31] returned a melting point of 150 to 151 °C. For the same molecule, on human CRTH2, the IC50 was below 0.01 µM.
In the same order, the values of `CC(C)CC(=O)Nc1ccc(Cc2ncc(CC(=O)[O-])c(N3CCCC3)n2)cc1.[Na+]` [Example 2-32] are 148 to 150 °C and 0.01 to 0.1 µM.
With `O=C(O)Cc1cnc(Cc2ccc(NC(=O)CC3CC3)cc2)nc1N1CCCC1` [Example 2-33], the melting point is 145 to 148 °C (dec.). Besides, the IC50 at human CRTH2 fell in the range of 0.1 to 0.5 µM.
In the same order, the values of `COCC(=O)Nc1ccc(Cc2ncc(CC(=O)O)c(N3CCCC3)n2)cc1` [Example 2-34] are 102 to 105 °C and above 0.5 µM.
In the same order, the values of `CC(C)(C)CC(=O)Nc1ccc(Cc2ncc(CC(=O)O)c(N3CCCC3)n2)cc1` [Example 2-35] are 147 to 150 °C and 0.01 to 0.1 µM.
`CCCC(=O)Nc1ccc(Cc2ncc(CC(=O)O)c(N3CCCC3)n2)cc1` [Example 2-36] registered a melting point of 130 to 133 °C. Moreover, on human CRTH2, the IC50 was in the range of 0.1 to 0.5 µM.
For `COCCN(C)c1nc(Cc2ccc(NC(=O)c3ccc4ccccc4c3)cc2)nc(Cl)c1CC(=O)O` [Example 3-5], the melting point was 144 °C. For the same molecule, the IC50 on human CRTH2 is below 0.01 µM.
For `CN(CC(=O)NC1CCCC1)c1nc(Cc2ccc(NCc3ccccc3)cc2)nc(Cl)c1CC(=O)O` [Example 5-2], in that order: above 70 °C and above 0.5 µM.
`CN(CC(=O)NC1CCCC1)c1nc(Cc2ccc(NCc3ccc4ccccc4c3)cc2)nc(Cl)c1CC(=O)O` [Example 5-3] displayed a melting point above 96 °C. At human CRTH2, the IC50 was in the range of 0.1 to 0.5 µM.
Take `CN(C)c1nc(Cc2ccc(NC(=O)/C=C/c3ccc(Cl)cc3)cc2)nc(N(C)C)c1CC(=O)O` [Example 7-8]: the melting point worked out at 162 °C. For the same molecule, the IC50 at human CRTH2 is below 0.01 µM.
For `CN(C)c1nc(Cc2ccc(NC(=O)c3ccc4ccccc4n3)cc2)nc(N2CCCC2)c1CC(=O)O` [Example 7-9], in that order: 131 to 133 °C and 0.1 to 0.5 µM.
Molecule `CN(C)c1nc(Cc2ccc(NC(=O)/C=C/c3ccc(Cl)cc3)cc2)nc(N2CCCC2)c1CC(=O)O` [Example 7-10] showed a melting point of 146 to 149 °C. Also, the IC50 on human CRTH2 was below 0.01 µM.
On to `CN(C)c1nc(Cc2ccc(NC(=O)/C=C/c3ccccc3)cc2)nc(N2CCCC2)c1CC(=O)O` [Example 7-11], for which the melting point was 151 to 153 °C. For the same molecule, the IC50 on human CRTH2 is 0.01 to 0.1 µM.
On to `CN(C)c1nc(Cc2ccc(NC(=O)c3ccc(C(F)(F)F)cc3)cc2)nc(N2CCCC2)c1CC(=O)O` [Example 7-12], for which the melting point was in the range of 144 to 147 °C. In addition, at human CRTH2, the IC50 lay within 0.01 to 0.1 µM.
Regarding `CN(C)c1nc(Cc2ccc(NC(=O)c3ccc(Cl)c(Cl)c3)cc2)nc(N2CCCC2)c1CC(=O)O` [Example 7-13], the melting point fell in the range of 150 to 152 °C. Besides, the IC50 at human CRTH2 lay in the range of 0.1 to 0.5 µM.
Regarding `CN(C)c1nc(Cc2ccc(NC(=O)c3ccccc3-c3ccccc3)cc2)nc(N2CCCC2)c1CC(=O)O` [Example 7-14], the melting point is 132 to 134 °C. Moreover, the IC50 on human CRTH2 is above 0.5 µM.
As for `CN(C)c1nc(Cc2ccc(NC(=O)c3cccc(-c4ccccc4)c3)cc2)nc(N2CCCC2)c1CC(=O)O` [Example 7-15], the melting point was 147 to 179 °C. At human CRTH2, the IC50 lay in the range of 0.01 to 0.1 µM.
`CN(C)c1nc(Cc2ccc(NC(=O)c3ccc(-c4ccccc4)cc3)cc2)nc(N2CCCC2)c1CC(=O)O` [Example 7-16] returned a melting point of 224 to 226 °C. Moreover, the IC50 at human CRTH2 is 0.01 to 0.1 µM.
Regarding `CN(C)c1nc(Cc2ccc(NC(=O)c3ccc4ccccc4n3)cc2)nc(N2CCOCC2)c1CC(=O)O` [Example 7-17], the melting point lay in the range of 205 to 207 °C. Moreover, the IC50 on human CRTH2 is above 0.5 µM.
In the case of `CN(C)c1nc(Cc2ccc(NC(=O)c3ccc(Cl)cc3)cc2)nc(N2CCOCC2)c1CC(=O)O` [Example 7-18], the melting point is 216 to 218 °C (dec.). Moreover, the IC50 on human CRTH2 was 0.1 to 0.5 µM.
In the same order, the values of `CN(C)c1nc(Cc2ccc(NC(=O)c3ccc(Cl)c(Cl)c3)cc2)nc(N2CCOCC2)c1CC(=O)O` [Example 7-19] are 196 to 198 °C and 0.01 to 0.1 µM.
`CN(C)c1nc(Cc2ccc(NC(=O)c3ccc(C(F)(F)F)cc3)cc2)nc(N2CCOCC2)c1CC(=O)O` [Example 7-20]: the melting point was 212 to 213 °C (dec.). Also, the IC50 on human CRTH2 was in the range of 0.01 to 0.1 µM.
`CN(C)c1nc(Cc2ccc(NC(=O)/C=C/c3ccccc3)cc2)nc(N2CCOCC2)c1CC(=O)O` [Example 7-21] registered a melting point of 129 to 132 °C. Further, the IC50 at human CRTH2 fell in the range of 0.01 to 0.1 µM.
In the same order, the values of `CN(C)c1nc(Cc2ccc(NC(=O)c3ccccc3Oc3ccccc3)cc2)nc(N2CCCC2)c1CC(=O)O` [Example 7-22] are 192 to 194 °C and above 0.5 µM.
`CN(C)c1nc(Cc2ccc(NC(=O)c3cccc(Oc4ccccc4)c3)cc2)nc(N2CCCC2)c1CC(=O)O` [Example 7-23] showed a melting point of 123 to 125 °C. The IC50 on human CRTH2 is 0.01 to 0.1 µM.
In the same order, the values of `CN(C)c1nc(Cc2ccc(NC(=O)c3ccc(Oc4ccccc4)cc3)cc2)nc(N2CCCC2)c1CC(=O)O` [Example 7-24] are 137 to 140 °C and below 0.01 µM.
For `COc1ccc(/C=C/C(=O)Nc2ccc(Cc3nc(N(C)C)c(CC(=O)O)c(N4CCOCC4)n3)cc2)cc1` [Example 7-25], in that order: 192 to 195 °C (dec.) and below 0.01 µM.
Turning to `CN(C)c1nc(Cc2ccc(NC(=O)COc3ccccc3)cc2)nc(N2CCOCC2)c1CC(=O)O` [Example 7-26], the melting point is 172 to 175 °C. In addition, the IC50 at human CRTH2 is above 0.5 µM.
Turning to `COc1ccccc1/C=C/C(=O)Nc1ccc(Cc2nc(N(C)C)c(CC(=O)O)c(N3CCOCC3)n2)cc1` [Example 7-27], the melting point lay in the range of 125 to 128 °C. Also, the IC50 on human CRTH2 is below 0.01 µM.
`CN(C)c1nc(Cc2ccc(NC(=O)c3ccc(F)cc3)cc2)nc(N2CCCC2)c1CC(=O)O` [Example 7-28]: the melting point fell in the range of 132 to 135 °C. Besides, the IC50 at human CRTH2 lay within 0.1 to 0.5 µM.

The term melting point denotes the temperature, or range, at which the solid turns liquid.
